Here are results for five compounds from PMC10817097, “Caffeic Acid Phosphanium Derivatives: Potential Selective Antitumor, Antimicrobial and Antiprotozoal Agents” (International Journal of Molecular Sciences, 2024).

≈ marks a conversion by molar mass, not a printed value.

Holding throughout (format): cell-based
Assay [1] deals with S. aureus (MS) CCM 4223. As to the kind of experiment: Broth microdilution MIC and MBC. The settings on record: Staphylococcus aureus, CCM4223, S. aureus methicillin-susceptible CCM 4223; for MBC: inactivating 99.9% of inoculum. On the procedure:
(§1) The antimicrobial activity of caffeic acid and its semi-synthetic derivates was tested against Gram-positive (Staphylococcus aureus CCM 4750, methicillin-resistant; Staphylococcus aureus CCM 4223, methicillin-susceptible; Enterococcus faecalis CCM 4224) and Gram-negative bacteria (Pseudomonas aeruginosa CCM 3955; Escherichia coli CCM 3954; Klebsiella pneumoniae CCM 4415; Proteus mirabilis CCM 7188), and one strain of a yeast Candida albicans (CCM 8267). Microbial strains were purchased from the Czech Collection of Microorganisms, Brno, Czech Republic, and preserved in aliquots in cryoprotective media at −20 °C until the testing. Revival of cryoprotected bacteria took place by overnight cultivation on blood agar and an additional passage on blood agar. Minimal inhibitory concentrations (MIC) against bacteria were detected by broth microdilution test in sterile 96-well U-shaped microtiter plates (Roll s.a.s., Piove di Sacco, Italy) according to the EUCAST recommendations. The test was performed in 100 μL volumes in microtiter plate wells with a final bacterial concentration of 5 × 10^5 CFU·mL^−1. Antifungal activity testing was performed according to the EUCAST-recommended method for the determination of broth dilution minimum inhibitory concentrations of antifungal agents for yeasts, with some modifications. The final yeast concentration in the test wells was 10^4 CFU·mL^−1. The minimal bactericidal/fungicidal concentrations (MBC/MFC) were detected by point-inoculation of 5 μL aliquots from test wells without visible growth on solid agar media free of antimicrobials. Mueller–Hinton broth and agar were used for bacteria, and Sabouraud dextrose broth and agar for fungi (OXOID, Basingstoke, Hampshire, UK). The tested agents were dissolved in 50% ethanol, and serial dilutions were prepared in the test medium to obtain final concentrations ranging from 5000 to 5 μg·mL^−1, which corresponds to 27,753—54 μM for caffeic acid, 7251—14 μM for CAP 6, 6967—14 μM for CAP 8, 6705—13 μM for CAP 10 and 6462—13 μM for CAP 12. Wells with media free of bacteria served as sterility control and wells with bacteria without antimicrobial agents were used as growth control. The MIC was determined to be the lowest concentration of the antimicrobial agent inhibiting the growth of the tested microorganism, and the MBC/MFC was determined to be the lowest concentration, inactivating 99.9% of microbial inoculum. All tests were performed in three independent runs to exclude possible excessive values due to permissible measurement error.

The subject of assay [2] is Enterococcus faecalis CCM 4224. As to the kind of experiment: Broth microdilution MIC and MBC. The conditions noted are these: for MIC: CCM4224, E. faecalis CCM 4224; for MBC: CCM4224, E. faecalis CCM 4224, inactivating 99.9% of inoculum. On the procedure: as §1
Assay [3] concerns Escherichia coli CCM 3954. Briefly: Broth microdilution MIC and MBC. The settings on record: for MIC: CCM3954, E. coli CCM 3954; for MBC: CCM3954, E. coli CCM 3954, inactivating 99.9% of inoculum. On the procedure: as §1
Assay [4] relates to Staphylococcus aureus (MR) CCM 4750. As to the kind of experiment: Broth microdilution MIC and MBC. The settings on record: for MIC: CCM4750, S. aureus methicillin-resistant CCM 4750; for MBC: CCM4750, S. aureus methicillin-resistant CCM 4750, inactivating 99.9% of inoculum. On the procedure:
as §1

In assay [5] the test system is Pseudomonas aeruginosa CCM 3955. As to the kind of experiment: Broth microdilution MIC and MBC. The settings on record: for MIC / MBC: Pseudomonas aeruginosa, CCM3955, P. aeruginosa CCM 3955; for MBC: inactivating 99.9% of inoculum. On the procedure:
as §1

For assay [6], the system named is Klebsiella pneumoniae CCM 4415. As to the kind of experiment: Broth microdilution MIC and MBC. The settings on record: for MIC: CCM4415, K. pneumoniae CCM 4415; for MBC: CCM4415, K. pneumoniae CCM 4415, inactivating 99.9% of inoculum. On the procedure: as §1
In assay [7] the test system is Proteus mirabilis CCM 7188. Briefly: Broth microdilution MIC and MBC. The settings on record: for MIC: CCM7188, P. mirabilis CCM 7188; for MBC: CCM7188, P. mirabilis CCM 7188, inactivating 99.9% of inoculum. On the procedure: as §1
Assay [8] has as its system NIH 3T3 (murine fibroblasts). As to the kind of experiment: MTS cell proliferation/viability assay, control cells. The settings on record: Mus musculus, NIH3T3, NIH 3T3 control cells, 72 h. On the procedure: (§2) The human cancer cell line HCT116 (human colorectal adenocarcinoma), HeLa (human cervical adenocarcinoma), Jurkat (human leukemic T cell lymphoma), and MDA-MB-231 (human mammary gland adenocarcinoma, triple-negative) were cultured in RPMI 1640 medium (Biosera, Kansas City, MO, USA). MCF-7 (human breast adenocarcinoma), A2058 (human metastatic melanoma), PANC-1 (human pancreatic adenocarcinoma), and NIH 3T3 (murine fibroblasts) cell lines were maintained in a growth medium consisting of high glucose Dulbecco’s Modified Eagle Medium with sodium pyruvate (Biosera, Kansas City, MO, USA). MCF-10A cell line (human mammary gland epithelial cells) was maintained in a growth medium consisting of high glucose DMEM F12 Medium (Biosera, Kansas City, MO, USA) + Suppl. (insulin, EGF-[…], HC-hydrocortisone, choleratoxin all Sigma, Steinheim, Germany). The growth medium was supplemented with a 10% fetal bovine serum, penicillin (100 IU/mL), and streptomycin (100 μg/mL) (all Invitrogen, Carlsbad, CA, USA), and cells were maintained in an atmosphere containing 5% CO2 in humidified air at 37 °C. Cell viability, estimated by trypan exclusion, was greater than 95% before each experiment.
(§3) The metabolic activity colorimetric assay (MTS) was used to determine the effects of CA (c = 10–300 µM) and compounds CAP 6, CAP 8, CAP 10, and CAP 12 (c = 1–100 µM) on the metabolic activity of several cell lines. After 72 h of incubation, 10 µL of MTS (Promega, Madison, WI, USA) was added to each well according to the CellTiter 96® AQueous One Solution Cell Proliferation Assay protocol. After a minimum of 1 h incubation, the absorbance was measured at 490 nm using the automated Cytation^TM 3 Cell Imaging Multi-Mode Reader (Biotek, Winooski, VT, USA). The absorbance of the control wells was taken as 1.0 (100%), and the results were expressed as a fold of the control. All experiments were performed in triplicate. Ideal predictive IC50 values were calculated from MTS analyses-based concentration concentration-dependent trends.

Assay [9] relates to MCF-10A cell line (human mammary gland epithelial cells). Described as above. The settings on record: MCF-10A control cells, 72 h. On the procedure: as §2, §3
Assay [10] relates to HeLa (human cervical adenocarcinoma). Briefly: MTS cell proliferation/viability assay. The settings on record: 72 h. On the procedure:
as §2, §3

The test system of assay [11] is MCF-7 (human breast adenocarcinoma). As to the kind of experiment: MTS cell proliferation/viability assay. The settings on record: MCF7, MCF-7, MTS, 72 h. On the procedure:
as §2, §3

For assay [12], the system named is PANC-1 (human pancreatic adenocarcinoma). As to the kind of experiment: MTS cell proliferation/viability assay. The conditions noted are these: PANC-1, MTS, 72 h. On the procedure: as §2, §3
Assay [13] concerns Candida albicans CCM 8267. Briefly: Broth dilution MIC and MFC for yeasts. The settings on record: for MIC: CCM8267, C. albicans CCM 8267; for MFC: CCM8267, C. albicans CCM 8267, inactivating 99.9% of inoculum. On the procedure:
as §1

For assay [14], the system named is Jurkat (human leukemic T cell lymphoma). As to the kind of experiment: MTS cell proliferation/viability assay. The conditions noted are these: 72 h. On the procedure: as §2, §3

As for `CC(=O)Oc1ccc(/C=C/C(=O)OCCCCCCCCCCCC[P+](c2ccccc2)(c2ccccc2)c2ccccc2)cc1OC(C)=O` [CAP 12, P,P,P-triphenyl-12-{(2E)-3-[3,4-(diacetyloxy)penyl]prop-2-enoyloxy}dodecane-1-phosphanium bromide], the MIC in assay [1] was found to be 50 µM; in assay [2], 25 µM; in assay [3], 808 µM; in assay [4], 25 µM; in [5], 404 µM; in [6], 404 µM. Besides, the MIC in assay [7] was 404 µM; in [13], 25 µM. For the same compound, the MBC is 50 µM in [1]; 25 µM in assay [2]; 808 µM in assay [3]; 25 µM in assay [4]; 808 µM in [5]; 404 µM in assay [6]. Besides, the MBC in assay [7] turned out to be 404 µM. Besides, the IC50 is 32.5 ± 0.9 µM in assay [8]; 33.7 ± 1.5 µM in [9]; 3.3 ± 1.1 µM in assay [10]; 4.9 ± 0.7 µM in assay [11]; over 100 µM in [12]. Also, in assay [13], the MFC came out at 25 µM.
As to `CC(=O)Oc1ccc(/C=C/C(=O)OCCCCCCCC[P+](c2ccccc2)(c2ccccc2)c2ccccc2)cc1OC(C)=O` [CAP 8, P,P,P-triphenyl-8-{(2E)-3-[3,4-(diacetyloxy)penyl]prop-2-enoyloxy}okctane-1-phosphanium bromide], the MIC in assay [1] is 14 µM; in assay [2] it was 27 µM; in assay [3], 435 µM; in assay [4], 27 µM; in assay [5] it was 871 µM; in assay [6], 27 µM. The MIC in assay [7] was found to be 218 µM; in assay [13], 27 µM. In addition, the MBC turned out to be 14 µM in assay [1]; 27 µM in [2]; 435 µM in assay [3]; 27 µM in assay [4]; 871 µM in assay [5]; 27 µM in assay [6]. The MBC in assay [7] is 435 µM. For the same compound, the IC50 in assay [8] is 38.2 ± 1.8 µM; in assay [9], 42.3 ± 1.1 µM; in assay [10] it was 7.1 ± 0.3 µM; in assay [11] it was 48.7 ± 0.1 µM; in assay [12] it was over 100 µM; in [14] it was 6.9 ± 0.3 µM. Also, in [13], the minimum fungicidal concentration (MFC) came to 27 µM.
Take `CC(=O)Oc1ccc(/C=C/C(=O)OCCCCCC[P+](c2ccccc2)(c2ccccc2)c2ccccc2)cc1OC(C)=O` [CAP 6, P,P,P-triphenyl-6-{(2E)-3-[3,4-(diacetyloxy)penyl]prop-2-enoyloxy}hexane-1-phosphanium bromide]: the MIC amounted to 14 µM in assay [1]; 57 µM in assay [2]; 227 µM in assay [3]; 14 µM in assay [4]; 453 µM in [5]; 28 µM in [6]. Also, the values for the MIC in [7] and in assay [13] were 453 µM and 57 µM, respectively. Besides, the MBC in [1] was 14 µM; in assay [2], 57 µM; in assay [3] it was 227 µM; in [4], 14 µM; in assay [5], 453 µM; in [6] it was 28 µM. The compound also had an MBC in [7] of 453 µM. Further, the IC50 in assay [8] amounted to 44.4 ± 2.6 µM; in assay [9], 53.7 ± 0.2 µM; in [10], 34 ± 1.8 µM; in assay [11] it was 44.5 ± 0.1 µM; in assay [12], 98.8 ± 2.4 µM; in assay [14], 8.5 ± 0.2 µM. For the same compound, in assay [13], the MFC stood at 57 µM.
Turning to `O=C(O)C=Cc1ccc(O)c(O)c1` [CA, 3-(3,4-dihydroxyphenyl)-2-propenoic acid, reference compound], the MIC in [1] was 6940 µM (≈ 1250 µg/mL); in assay [2], 13900 µM (≈ 2500 µg/mL); in assay [3] it was 6940 µM (≈ 1250 µg/mL); in [4], 6940 µM (≈ 1250 µg/mL); in [5], 3470 µM (≈ 625 µg/mL); in assay [6], 6940 µM (≈ 1250 µg/mL). Moreover, the MIC in assay [7] turned out to be 6940 µM (≈ 1250 µg/mL); in assay [13], 13900 µM (≈ 2500 µg/mL). Also, the MBC in assay [1] amounted to 13900 µM (≈ 2500 µg/mL); in assay [2], 27800 µM (≈ 5000 µg/mL); in assay [3] it was 13900 µM (≈ 2500 µg/mL); in assay [4], 13900 µM (≈ 2500 µg/mL); in [5], 3470 µM (≈ 625 µg/mL); in [6], 6940 µM (≈ 1250 µg/mL). In assay [7], this compound yielded an MBC of 6940 µM (≈ 1250 µg/mL). The MIC/MBC in assay [5] (P. aeruginosa, corresponding to the μM value) was 625 µg/mL (≈ 3.47 mM). Moreover, the IC50 in assay [8], in [9], in [10], in [11], in assay [12] and in assay [14] was over 300 µM each time. The compound also showed an MFC in assay [13] of 13900 µM (≈ 2500 µg/mL).
Take `CC(=O)Oc1ccc(/C=C/C(=O)OCCCCCCCCCC[P+](c2ccccc2)(c2ccccc2)c2ccccc2)cc1OC(C)=O` [CAP 10, P,P,P-triphenyl-10-{(2E)-3-[3,4-(diacetyloxy)penyl]prop-2-enoyloxy}decane-1-phosphanium bromide]: the MIC is 13 µM in assay [1]; 26 µM in assay [2]; 419 µM in assay [3]; 13 µM in [4]; 838 µM in assay [5]; 105 µM in [6]. Besides, the MIC in [7] was 210 µM; in assay [13], 13 µM. Further, the MBC in assay [1] stood at 13 µM; in [2], 26 µM; in assay [3] it was 419 µM; in assay [4], 26 µM; in [5] it was 676 µM; in [6], 105 µM. In addition, in assay [7], the MBC was 419 µM. Also, the IC50 in [8] came out at 28 ± 1.3 µM; in assay [9] it was 31.1 ± 2.3 µM; in [10] it was 8 ± 0.7 µM; in [11], 9.5 ± 0.2 µM; in assay [12], 91.2 ± 2.6 µM. In addition, the MFC in assay [13] was found to be 13 µM.
